# Tested on: MV-4-11 cells
# Assay: Gene expression microarray analysis (Affymetrix PrimeView) and GSEA
# Type: cell-based, human
# Parameters: RFU PODN (11730768_x_at) / Fold change /veh PODN (11730768_x_at) / RFU LINC00158 (11744669_a_at) / Fold change /veh LINC00158 (11744669_a_at) / RFU DUSP10 (11751237_a_at) / Fold change /veh DUSP10 (11751237_a_at) / RFU ID3 (11757404_x_at) / Fold change /veh ID3 (11757404_x_at) / RFU PLEKHG5 (11737974_s_at) / Fold change /veh PLEKHG5 (11737974_s_at) / RFU LRRC4B (11730491_at) / Fold change /veh LRRC4B (11730491_at) / RFU GIMAP4 (11747438_a_at) / Fold change /veh GIMAP4 (11747438_a_at) / RFU KRT8 (11758183_x_at) / Fold change /veh KRT8 (11758183_x_at) / RFU CNN1 (11734310_a_at) / Fold change /veh CNN1 (11734310_a_at) / RFU VPS37D (11726825_at) / Fold change /veh VPS37D (11726825_at) / RFU C10orf10 (11716522_x_at) / Fold change /veh C10orf10 (11716522_x_at) / RFU KIR2DL2 /// KIR2DL4 /// KIR2DL5A /// KIR2DL5B /// KIR2DS1 /// KIR2DS2 /// KIR2DS3 /// KIR2DS4 /// KIR3DL3 /// KIR3DL3 /// KIR3DS1 (11738374_at) / Fold change /veh KIR2DL2 /// KIR2DL4 /// KIR2DL5A /// KIR2DL5B /// KIR2DS1 /// KIR2DS2 /// KIR2DS3 /// KIR2DS4 /// KIR3DL3 /// KIR3DL3 /// KIR3DS1 (11738374_at) / RFU C1QL1 (11718748_at) / Fold change /veh C1QL1 (11718748_at) / RFU TMPRSS4 (11747572_a_at) / Fold change /veh TMPRSS4 (11747572_a_at) / RFU HAMP (11756126_x_at) / Fold change /veh HAMP (11756126_x_at) / RFU RNFT2 (11725882_a_at) / Fold change /veh RNFT2 (11725882_a_at) / RFU NR4A2 (11747474_a_at) / Fold change /veh NR4A2 (11747474_a_at) / RFU ABCC12 (11746883_a_at) / Fold change /veh ABCC12 (11746883_a_at) / RFU TMEM136 (11760407_x_at) / Fold change /veh TMEM136 (11760407_x_at) / RFU CLDN22 /// WWC2 (11732394_at) / Fold change /veh CLDN22 /// WWC2 (11732394_at) / RFU HLA-DPB1 (11760878_x_at) / Fold change /veh HLA-DPB1 (11760878_x_at) / RFU SPINT1 (11716480_a_at) / Fold change /veh SPINT1 (11716480_a_at) / RFU GAP43 (11754022_s_at) / Fold change /veh GAP43 (11754022_s_at) / RFU A4GNT (11735810_at) / Fold change /veh A4GNT (11735810_at) / RFU PRB3 (11715151_x_at) / Fold change /veh PRB3 (11715151_x_at) / RFU TUBB4B (11761932_at) / Fold change /veh TUBB4B (11761932_at) / RFU CAPN14 (11732068_a_at) / Fold change /veh CAPN14 (11732068_a_at) / RFU TMCC2 (11721928_a_at) / Fold change /veh TMCC2 (11721928_a_at) / RFU IRGQ (11745062_a_at) / Fold change /veh IRGQ (11745062_a_at) / RFU FAM174B (11720279_a_at) / Fold change /veh FAM174B (11720279_a_at) / RFU TMPRSS4 (11748680_a_at) / Fold change /veh TMPRSS4 (11748680_a_at) / RFU FAM212B (11763350_a_at) / Fold change /veh FAM212B (11763350_a_at) / RFU PLEKHG5 (11743358_a_at) / Fold change /veh PLEKHG5 (11743358_a_at) / RFU ZSCAN30 (11745921_a_at) / Fold change /veh ZSCAN30 (11745921_a_at) / RFU CMKLR1 (11741424_a_at) / Fold change /veh CMKLR1 (11741424_a_at) / RFU LOC101060620 /// MAPK8IP1 (11723275_at) / Fold change /veh LOC101060620 /// MAPK8IP1 (11723275_at) / RFU SPTSSB (11747773_x_at) / Fold change /veh SPTSSB (11747773_x_at) / RFU PRSS12 (11739890_at) / Fold change /veh PRSS12 (11739890_at) / RFU BIN1 (11741810_x_at) / Fold change /veh BIN1 (11741810_x_at) / RFU WNT11 (11732464_a_at) / Fold change /veh WNT11 (11732464_a_at) / RFU C10orf10 (11716521_a_at) / Fold change /veh C10orf10 (11716521_a_at) / RFU C5orf56 (11738089_at) / Fold change /veh C5orf56 (11738089_at) / RFU CYB561 (11721691_x_at) / Fold change /veh CYB561 (11721691_x_at) / RFU ANKRD19P (11752326_a_at) / Fold change /veh ANKRD19P (11752326_a_at) / RFU OR2T12 /// OR2T33 /// OR2T8 (11738714_s_at) / Fold change /veh OR2T12 /// OR2T33 /// OR2T8 (11738714_s_at) / RFU VCAN (11748164_a_at) / Fold change /veh VCAN (11748164_a_at) / RFU JSRP1 (11732532_at) / Fold change /veh JSRP1 (11732532_at) / RFU KRTAP10-11 (11738290_x_at) / Fold change /veh KRTAP10-11 (11738290_x_at) / RFU MYO3A (11730013_a_at) / Fold change /veh MYO3A (11730013_a_at) / RFU EBF3 (11725865_a_at) / Fold change /veh EBF3 (11725865_a_at) / RFU CAMK2N1 (11719241_x_at) / Fold change /veh CAMK2N1 (11719241_x_at) / RFU C5orf56 (11738088_a_at) / Fold change /veh C5orf56 (11738088_a_at) / RFU OLFML3 (11715873_a_at) / Fold change /veh OLFML3 (11715873_a_at) / RFU LOC100653217 /// NTM (11731650_a_at) / Fold change /veh LOC100653217 /// NTM (11731650_a_at) / RFU MAPK11 (11762145_a_at) / Fold change /veh MAPK11 (11762145_a_at) / RFU FIZ1 (11724087_x_at) / Fold change /veh FIZ1 (11724087_x_at) / RFU OASL (11726364_x_at) / Fold change /veh OASL (11726364_x_at) / RFU SOX15 (11748057_x_at) / Fold change /veh SOX15 (11748057_x_at) / RFU CD79A (11719716_a_at) / Fold change /veh CD79A (11719716_a_at) / RFU HIST1H1D (11736915_at) / Fold change /veh HIST1H1D (11736915_at) / RFU CASKIN2 (11723855_a_at) / Fold change /veh CASKIN2 (11723855_a_at) / RFU LOC730098 (11760151_x_at) / Fold change /veh LOC730098 (11760151_x_at) / RFU OR4N2 (11742367_at) / Fold change /veh OR4N2 (11742367_at) / RFU PRRT2 (11749266_a_at) / Fold change /veh PRRT2 (11749266_a_at) / RFU SNX32 (11753110_a_at) / Fold change /veh SNX32 (11753110_a_at) / RFU CDHR5 (11726645_a_at) / Fold change /veh CDHR5 (11726645_a_at) / RFU RCAN1 (11760418_a_at) / Fold change /veh RCAN1 (11760418_a_at) / RFU FAM167A (11723789_a_at) / Fold change /veh FAM167A (11723789_a_at) / RFU FAM26E (11764081_at) / Fold change /veh FAM26E (11764081_at) / RFU ISYNA1 (11749810_s_at) / Fold change /veh ISYNA1 (11749810_s_at) / RFU ACY1 (11761880_at) / Fold change /veh ACY1 (11761880_at) / RFU 11764098_at / Fold change /veh 11764098_at / RFU SAMD14 (11745864_x_at) / Fold change /veh SAMD14 (11745864_x_at) / RFU NPB (11741838_a_at) / Fold change /veh NPB (11741838_a_at) / RFU TMPRSS6 (11731388_a_at) / Fold change /veh TMPRSS6 (11731388_a_at) / RFU KRTAP10-2 (11738614_at) / Fold change /veh KRTAP10-2 (11738614_at) / RFU ARHGAP8 /// PRR5-ARHGAP8 (11727945_x_at) / Fold change /veh ARHGAP8 /// PRR5-ARHGAP8 (11727945_x_at) / RFU KRTAP5-7 /// NADSYN1 (11734609_at) / Fold change /veh KRTAP5-7 /// NADSYN1 (11734609_at) / RFU RASL12 (11751679_a_at) / Fold change /veh RASL12 (11751679_a_at) / RFU CDKN2B (11736163_a_at) / Fold change /veh CDKN2B (11736163_a_at) / RFU PRF1 (11729649_at) / Fold change /veh PRF1 (11729649_at) / RFU, ZNF638 /// ZNF638-IT1 / Fold change vs veh, ZNF638 /// ZNF638-IT1 / RFU, PANK3 / Fold change vs veh, PANK3 / RFU, SH3YL1 / Fold change vs veh, SH3YL1 / RFU, ZEB2 / Fold change vs veh, ZEB2 / RFU, NRIP1 / Fold change vs veh, NRIP1 / RFU, PTTG1IP / Fold change vs veh, PTTG1IP / RFU, CAPN2 / Fold change vs veh, CAPN2 / RFU, MED14 / Fold change vs veh, MED14 / RFU, SNORA58 / Fold change vs veh, SNORA58 / RFU, C1orf63 / Fold change vs veh, C1orf63 / RFU, LRRFIP1 / Fold change vs veh, LRRFIP1 / RFU, NDUFAF7 / Fold change vs veh, NDUFAF7 / RFU, SLC12A2 / Fold change vs veh, SLC12A2 / RFU, IBTK / Fold change vs veh, IBTK / RFU, ESF1 / Fold change vs veh, ESF1 / Fold change vs veh, TMEM50B / RFU, TAOK1 / Fold change vs veh, TAOK1 / RFU, ACBD3 / Fold change vs veh, ACBD3 / RFU, TMA16 / Fold change vs veh, TMA16 / RFU, RWDD3 / Fold change vs veh, RWDD3 / RFU, BCAT1 / Fold change vs veh, BCAT1 / RFU, EDEM3 / Fold change vs veh, EDEM3 / RFU, TMEM33 / Fold change vs veh, TMEM33 / RFU, WDR75 / Fold change vs veh, WDR75 / RFU, AHCTF1 / Fold change vs veh, AHCTF1 / RFU, TFRC / Fold change vs veh, TFRC / RFU, ZDHHC17 / Fold change vs veh, ZDHHC17 / RFU, NOM1 / Fold change vs veh, NOM1 / RFU, ARL8B / Fold change vs veh, ARL8B / RFU, ZBTB11 / Fold change vs veh, ZBTB11 / RFU, TAMM41 / Fold change vs veh, TAMM41 / RFU, KIAA1704 /// LOC100996395 / Fold change vs veh, KIAA1704 /// LOC100996395 / RFU, ING1 / Fold change vs veh, ING1 / RFU, TRMT61B / Fold change vs veh, TRMT61B / RFU, FUBP3 / Fold change vs veh, FUBP3 / RFU, TP53 / Fold change vs veh, TP53 / RFU, TNKS2 / Fold change vs veh, TNKS2 / RFU, ZFP14 / Fold change vs veh, ZFP14 / RFU, ACTR2 / Fold change vs veh, ACTR2 / RFU, PPP3R1 / Fold change vs veh, PPP3R1 / RFU, PIK3R1 / Fold change vs veh, PIK3R1 / RFU, HNRNPA1 / Fold change vs veh, HNRNPA1 / RFU, RNF170 / Fold change vs veh, RNF170 / RFU, ZNF28 / Fold change vs veh, ZNF28 / RFU, RNGTT / Fold change vs veh, RNGTT / RFU, OGT / Fold change vs veh, OGT / RFU, BRD1 / Fold change vs veh, BRD1 / RFU, MARS / Fold change vs veh, MARS / RFU, ZNF655 / Fold change vs veh, ZNF655 / RFU, FAHD1 / Fold change vs veh, FAHD1 / RFU, BDP1 / Fold change vs veh, BDP1 / RFU, LRRCC1 / Fold change vs veh, LRRCC1 / RFU, ARID1A / Fold change vs veh, ARID1A / RFU, ZNF146 / Fold change vs veh, ZNF146 / RFU, ZNF330 / Fold change vs veh, ZNF330 / RFU, GPN3 / Fold change vs veh, GPN3 / RFU, C9orf123 / Fold change vs veh, C9orf123 / RFU, N4BP2L2 / Fold change vs veh, N4BP2L2 / RFU, ARFIP1 / Fold change vs veh, ARFIP1 / RFU, FAM179B / Fold change vs veh, FAM179B / RFU, BCL10 / Fold change vs veh, BCL10 / RFU, UHRF1BP1L / Fold change vs veh, UHRF1BP1L / RFU, BET1 / Fold change vs veh, BET1 / RFU, CNOT2 / Fold change vs veh, CNOT2 / RFU, ZNF268 / Fold change vs veh, ZNF268 / Fold change vs veh, ZNF507 / RFU, DGCR2 / Fold change vs veh, DGCR2 / RFU, WDSUB1 / Fold change vs veh, WDSUB1 / Fold change vs veh, HSP90B1 /// MIR3652 / RFU, ADSS / Fold change vs veh, ADSS / RFU, GK / Fold change vs veh, GK / RFU, ZNF148 / Fold change vs veh, ZNF148 / RFU, TAF9 / Fold change vs veh, TAF9 / RFU, SLC1A5 / Fold change vs veh, SLC1A5 / RFU, SLMO2 / Fold change vs veh, SLMO2 / RFU, ABCC4 / Fold change vs veh, ABCC4 / RFU, LOC101060439 /// RAP1B / Fold change vs veh, LOC101060439 /// RAP1B / RFU, RFX7 / Fold change vs veh, RFX7 / RFU, GTPBP10 / Fold change vs veh, GTPBP10 / RFU, CNEP1R1 / Fold change vs veh, CNEP1R1 / RFU, BIVM-ERCC5 /// ERCC5 / Fold change vs veh, BIVM-ERCC5 /// ERCC5 / RFU, ILF3 / Fold change vs veh, ILF3 / RFU 11762660_at / Fold change /veh 11762660_at / RFU VCAN (11757783_s_at) / Fold change /veh VCAN (11757783_s_at) / RFU DDX43 (11728927_at) / Fold change /veh DDX43 (11728927_at) / RFU KRT8 (11758188_x_at) / Fold change /veh KRT8 (11758188_x_at) / RFU NKD1 (11759106_at) / Fold change /veh NKD1 (11759106_at) / RFU SRD5A1 (11742802_a_at) / Fold change /veh SRD5A1 (11742802_a_at) / RFU TPSAB1 /// TPSB2 (11721975_s_at) / Fold change /veh TPSAB1 /// TPSB2 (11721975_s_at) / RFU GSTM3 (11746129_a_at) / Fold change /veh GSTM3 (11746129_a_at) / RFU IL23R (11737362_x_at) / Fold change /veh IL23R (11737362_x_at) / RFU TMEM51 (11727254_a_at) / Fold change /veh TMEM51 (11727254_a_at) / RFU PIWIL2 (11732686_x_at) / Fold change /veh PIWIL2 (11732686_x_at) / RFU ORM1 (11744905_x_at) / Fold change /veh ORM1 (11744905_x_at) / RFU CCDC152 (11743942_at) / Fold change /veh CCDC152 (11743942_at) / RFU ECM1 (11717891_a_at) / Fold change /veh ECM1 (11717891_a_at) / RFU IL23R (11748794_a_at) / Fold change /veh IL23R (11748794_a_at) / RFU TNFAIP8L3 (11732012_x_at) / Fold change /veh TNFAIP8L3 (11732012_x_at) / RFU MBOAT4 (11741988_at) / Fold change /veh MBOAT4 (11741988_at) / RFU 11764193_at / Fold change /veh 11764193_at / RFU TMEM53 (11763286_at) / Fold change /veh TMEM53 (11763286_at) / RFU MAGEB2 (11727129_at) / Fold change /veh MAGEB2 (11727129_at) / RFU TMEM200A (11744735_a_at) / Fold change /veh TMEM200A (11744735_a_at) / RFU CCDC152 (11751479_a_at) / Fold change /veh CCDC152 (11751479_a_at) / RFU FAM211A (11726209_a_at) / Fold change /veh FAM211A (11726209_a_at) / RFU RGS16 (11746705_a_at) / Fold change /veh RGS16 (11746705_a_at) / RFU VCAN (11755009_s_at) / Fold change /veh VCAN (11755009_s_at) / RFU RHOB (11743442_s_at) / Fold change /veh RHOB (11743442_s_at) / RFU RGS16 (11720943_a_at) / Fold change /veh RGS16 (11720943_a_at) / RFU RGS16 (11720944_at) / Fold change /veh RGS16 (11720944_at) / RFU, VPS4B / Fold change vs veh, VPS4B / RFU, CREB1 / Fold change vs veh, CREB1 / RFU, DNAJC13 / Fold change vs veh, DNAJC13 / RFU, GNAQ / Fold change vs veh, GNAQ / RFU, CDK5R1 / Fold change vs veh, CDK5R1 / RFU, ZRANB3 / Fold change vs veh, ZRANB3 / RFU, CUL4A / Fold change vs veh, CUL4A / RFU, CCNY / Fold change vs veh, CCNY / RFU, UFL1 / Fold change vs veh, UFL1 / RFU, COG3 / Fold change vs veh, COG3 / RFU, DIAPH2 / Fold change vs veh, DIAPH2 / RFU, SKA2 / Fold change vs veh, SKA2 / RFU, AFF3 / Fold change vs veh, AFF3 / RFU, LMF1 / Fold change vs veh, LMF1 / RFU, IPO11 / Fold change vs veh, IPO11 / RFU, DFFB / Fold change vs veh, DFFB / RFU, FOXP1 / Fold change vs veh, FOXP1 / RFU, CARD8 / Fold change vs veh, CARD8 / RFU, STRN3 / Fold change vs veh, STRN3 / RFU, ADK / Fold change vs veh, ADK / RFU, RASSF2 / Fold change vs veh, RASSF2 / RFU, WIPF1 / Fold change vs veh, WIPF1 / RFU, LARP1B / Fold change vs veh, LARP1B / RFU, RASA1 / Fold change vs veh, RASA1 / RFU, RB1 / Fold change vs veh, RB1 / RFU, PPFIA1 / Fold change vs veh, PPFIA1 / RFU, MAT2A / Fold change vs veh, MAT2A / RFU, CCT5 / Fold change vs veh, CCT5 / RFU, WDR92 / Fold change vs veh, WDR92 / RFU, CUX1 / Fold change vs veh, CUX1 / RFU, TTC7A / Fold change vs veh, TTC7A / RFU, TMEM135 / Fold change vs veh, TMEM135 / RFU, DEPTOR / Fold change vs veh, DEPTOR / RFU, CPM / Fold change vs veh, CPM / RFU, DNAJB6 / Fold change vs veh, DNAJB6 / RFU, CACNA2D3 / Fold change vs veh, CACNA2D3 / RFU, DTX4 / Fold change vs veh, DTX4 / RFU, TFCP2 / Fold change vs veh, TFCP2 / RFU, GMCL1 /// GMCL1P1 / Fold change vs veh, GMCL1 /// GMCL1P1 / RFU, AEBP2 / Fold change vs veh, AEBP2 / RFU, SNHG1 /// SNORD22 /// SNORD25 /// SNORD26 /// SNORD27 /// SNORD28 /// SNORD29 /// SNORD31 / Fold change vs veh, SNHG1 /// SNORD22 /// SNORD25 /// SNORD26 /// SNORD27 /// SNORD28 /// SNORD29 /// SNORD31 / Fold change (Aza/veh), C12orf56 (ProbeSet 11735607_a_at) / Fold change (ACY-1035/veh), C12orf56 (ProbeSet 11735607_a_at) / Fold change (Aza/veh), FGFR1OP (ProbeSet 11751329_s_at) / Fold change (ACY-1035/veh), FGFR1OP (ProbeSet 11751329_s_at) / Fold change (Aza/veh), VPS36 (ProbeSet 11739960_a_at) / Fold change (ACY-1035/veh), VPS36 (ProbeSet 11739960_a_at) / RFU SYPL1 (11715823_x_at) / Fold change /veh SYPL1 (11715823_x_at) / RFU IGFBP7 (11715501_s_at) / Fold change /veh IGFBP7 (11715501_s_at) / RFU REEP3 (11722064_at) / Fold change /veh REEP3 (11722064_at) / RFU IGLL1 (11728026_x_at) / Fold change /veh IGLL1 (11728026_x_at): dose or concentration left out as unconfirmed
# Conditions: MV-4-11 cells, 48 hours
compound,measurement,value
Nc1ncn([C@@H]2O[C@H](CO)[C@@H](O)[C@H]2O)c(=O)n1 [azacitidine],RFU 11762660_at,14.91 RFU

# Source: PMC5218480 (PLoS ONE, 2017)
